Test results published in BindingDB's records for doi:10.1021/jm00039a015 (Abbott Laboratories, 1994).
pKi: −log10 of the molar value.

target: Platelet-activating factor receptor (Oryctolagus cuniculus); assay: Antagonist activity against platelet activating factor (PAF) receptor in rabbit platelet membranes using [3H]C18-PAF as radioligand

pKi | SMILES
7.02 | O=C(c1ccccc1)c1ccc2ccn(C(=O)[C@@H]3CSC(c4cccnc4)N3)c2c1 (stereo partly drawn) [(6-Benzoyl-indol-1-yl)-((R)-2-pyridin-3-yl-thiazolidin-4-yl)-methanone]
8.80 | COc1cc(C(=O)c2cccc(NC(=O)[C@@H]3CSC(c4cccnc4)N3)c2)cc(OC)c1OC (stereo partly drawn) [(R)-2-Pyridin-3-yl-thiazolidine-4-carboxylic acid [3-(3,4,5-trimethoxy-benzoyl)-phenyl]-amide]
8.06 | CC(C)(C)NC(=O)n1cc(C(=O)[C@@H]2CSC(c3cccnc3)N2)c2ccccc21 (stereo partly drawn) [3-((R)-2-Pyridin-3-yl-thiazolidine-4-carbonyl)-indole-1-carboxylic acid tert-butylamide]
8.89 | CN(C)C(=O)n1cc(C(=O)[C@@H]2CSC(c3cccnc3)N2)c2ccc(C#Cc3ccccc3)cc21 (stereo partly drawn) [6-Phenylethynyl-3-((R)-2-pyridin-3-yl-thiazolidine-4-carbonyl)-indole-1-carboxylic acid dimethylamide]
8.06 | CC(C)(C)C(=O)n1cc(C(=O)[C@@H]2CSC(c3cccnc3)N2)c2ccccc21 (stereo partly drawn) [2,2-Dimethyl-1-[3-((R)-2-pyridin-3-yl-thiazolidine-4-carbonyl)-indol-1-yl]-propan-1-one]

Further lines, the molecule ahead of its results:

SMILES | pKi
CN(C)C(=O)n1cc(C(=O)[C@@H]2CSC(c3cccnc3)N2)c2ccccc21 (stereo partly drawn) [3-((R)-2-Pyridin-3-yl-thiazolidine-4-carbonyl)-indole-1-carboxylic acid dimethylamide] | 9.10
Cc1[nH]c2ccccc2c1C(=O)[C@@H]1CSC(c2cccnc2)N1 (stereo partly drawn) [(2-Methyl-1H-indol-3-yl)-((R)-2-pyridin-3-yl-thiazolidin-4-yl)-methanone] | 7.64
Cc1ccc2c(C(=O)[C@@H]3CSC(c4cccnc4)N3)c[nH]c2c1 (stereo partly drawn) [(6-Methyl-1H-indol-3-yl)-((R)-2-pyridin-3-yl-thiazolidin-4-yl)-methanone] | 8.47
O=C(c1c[nH]c2cc(OCc3ccc(F)cc3)ccc12)[C@@H]1CSC(c2cccnc2)N1 (stereo partly drawn) [[6-(4-Fluoro-benzyloxy)-1H-indol-3-yl]-((R)-2-pyridin-3-yl-thiazolidin-4-yl)-methanone] | 8.80
O=C(C1CSC(c2cccnc2)N1)n1ccc2c(Cl)cccc21 (stereo not given) [(4-Chloro-indol-1-yl)-(2-pyridin-3-yl-thiazolidin-4-yl)-methanone] | 7.48
O=C(O)Cn1cc(C(=O)[C@@H]2CSC(c3cccnc3)N2)c2ccccc21 (stereo not given in full) [[3-(2-Pyridin-3-yl-thiazolidine-4-carbonyl)-indol-1-yl]-acetic acid] | 7.52
CCOC(=O)Cn1cc(C(=O)[C@@H]2CSC(c3cccnc3)N2)c2ccccc21 (stereo partly drawn) [[3-((R)-2-Pyridin-3-yl-thiazolidine-4-carbonyl)-indol-1-yl]-acetic acid ethyl ester] | 8.92
O=CN1C(c2cccnc2)SC[C@H]1C(=O)c1c[nH]c2ccccc12 (stereo partly drawn) [(R)-4-(1H-Indole-3-carbonyl)-2-pyridin-3-yl-thiazolidine-3-carbaldehyde] | 6.66
NC(=O)Cn1cc(C(=O)[C@@H]2CSC(c3cccnc3)N2)c2ccccc21 (stereo partly drawn) [2-[3-((R)-2-Pyridin-3-yl-thiazolidine-4-carbonyl)-indol-1-yl]-acetamide] | 8.30
O=C(c1c[nH]c2cc(Oc3ccc(F)cc3)ccc12)[C@@H]1CSC(c2cccnc2)N1 (stereo partly drawn) [[6-(4-Fluoro-phenoxy)-1H-indol-3-yl]-((R)-2-pyridin-3-yl-thiazolidin-4-yl)-methanone] | 8.72
